Patent publication US9487762B1, “Method and system for producing triterpenes” (University of Kentucky Research Foundation, priority 2012, dated 2016)

Experiments:
[1] = test system: six B. braunii SMT-like genes (TMT-1, -2, -3, SMT-1, -2, -3); assay: In vitro methyltransferase assay with sterol acceptor substrates; type: biochemical, Botryococcus braunii race B; conditions: 2 mM acceptor substrate, yeast microsomes, data not shown
Experimental: (§1) The various B. braunii SMT-like genes or empty vector control were expressed in TN-7 yeast and grown in 100 ml selection media for 3 days, after which microsomes were prepared according to the methods of Pompon et al. (27). Enzyme assays contained 50 mM HEPES, pH 7.5, either 0.01% (TMT-3) or 0.1% (all other samples) DHPC, 2 mM acceptor substrate (botryococcene, squalene, C32-botryococcene, C32-squalene, cycloartenol, zymosterol, or lanosterol), 50 μM 3H-SAM (˜150 dpm/pmole), 2 μl microsomes, in 100 μl total volume. Assays were set up by first combining everything except 3H-SAM and microsomes and treating with a sonicating water bath (Branson 2510) for ˜1 min. until the solution became cloudy due to micelle formation, after which 3H-SAM and microsomes were added and the reaction incubated at 37° C. for 5 min. Reactions were stopped by adding an equal volume of 10% (w/v) KOH in methanol, followed by extraction of hydrocarbon products with 400 μl n-hexane. An aliquot of the organic phase was spotted on silica TLC plates and developed with n-hexane:MTBE (25:1). Triterpenes were visualized with iodine vapor and the corresponding zones were scraped and subject to scintillation analysis.
None of the six enzymes was able to methylate C32 botryococcene or C32 squalene, possible intermediates to the tetramethylated forms (see below).

SMT-1 = biological target: T1, SMT-1 (Botryococcus braunii, UniProt H2E7T8); assay: In vitro methyltransferase assay, yeast microsomes, 3H-SAM; type: biochemical, Botryococcus braunii race B; conditions: SMT-1 microsomes; 2 mM acceptor substrate, 50 μM 3H-SAM, 0.1% DHPC, 37° C., 5 min
T1 construct: led to the identification of six full-length ORFs; made in house; host or cells: Saccharomyces cerevisiae TN7 (TN-7), microsomal preparation
T1 sequence (H2E7T8 1-389): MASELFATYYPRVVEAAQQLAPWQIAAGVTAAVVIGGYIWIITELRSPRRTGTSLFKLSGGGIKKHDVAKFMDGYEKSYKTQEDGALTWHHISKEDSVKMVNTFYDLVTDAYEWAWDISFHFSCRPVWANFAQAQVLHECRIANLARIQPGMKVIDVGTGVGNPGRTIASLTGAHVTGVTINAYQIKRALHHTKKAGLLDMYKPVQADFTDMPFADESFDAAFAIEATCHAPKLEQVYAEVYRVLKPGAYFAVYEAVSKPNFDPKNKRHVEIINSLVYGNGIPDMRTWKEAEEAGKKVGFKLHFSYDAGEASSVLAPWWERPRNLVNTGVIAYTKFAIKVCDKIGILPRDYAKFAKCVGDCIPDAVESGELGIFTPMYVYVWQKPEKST
Experimental: as §1
(§2) To verify the in vivo results with in vitro determinations, the six SMT-like genes were expressed in yeast and microsomal preparations used as the source of the enzymes in assays containing 3H-SAM and either botryococcene or squalene as substrates.

SMT-2 = biological target: T2, SMT-2 (Botryococcus braunii, UniProt H2E7T9); assay: as above; type: biochemical, Botryococcus braunii race B; conditions: SMT-2 microsomes; 2 mM acceptor substrate, 50 μM 3H-SAM, 0.1% DHPC, 37° C., 5 min
T2 construct: led to the identification of six full-length ORFs; made in house; host or cells: Saccharomyces cerevisiae TN7 (TN-7), microsomal preparation
T2 sequence (H2E7T9 1-389): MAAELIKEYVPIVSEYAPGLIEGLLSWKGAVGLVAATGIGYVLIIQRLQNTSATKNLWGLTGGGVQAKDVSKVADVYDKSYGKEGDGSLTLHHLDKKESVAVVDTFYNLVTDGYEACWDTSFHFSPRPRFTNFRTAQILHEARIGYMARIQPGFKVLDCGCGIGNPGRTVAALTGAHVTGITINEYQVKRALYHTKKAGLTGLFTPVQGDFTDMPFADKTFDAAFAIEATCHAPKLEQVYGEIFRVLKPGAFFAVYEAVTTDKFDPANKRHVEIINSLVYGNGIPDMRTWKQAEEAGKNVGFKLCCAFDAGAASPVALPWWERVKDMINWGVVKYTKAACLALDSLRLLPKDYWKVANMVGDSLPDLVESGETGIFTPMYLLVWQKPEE
Experimental: as §1, §2

SMT-3 = biological target: T3, SMT-3 (Botryococcus braunii, UniProt H2E7U0); assay: as above; type: biochemical, Botryococcus braunii race B; conditions: SMT-3 microsomes; 2 mM acceptor substrate, 50 μM 3H-SAM, 0.1% DHPC, 37° C., 5 min
T3 construct: led to the identification of six full-length ORFs; made in house; host or cells: Saccharomyces cerevisiae TN7 (TN-7), microsomal preparation
T3 sequence (H2E7U0 1-392): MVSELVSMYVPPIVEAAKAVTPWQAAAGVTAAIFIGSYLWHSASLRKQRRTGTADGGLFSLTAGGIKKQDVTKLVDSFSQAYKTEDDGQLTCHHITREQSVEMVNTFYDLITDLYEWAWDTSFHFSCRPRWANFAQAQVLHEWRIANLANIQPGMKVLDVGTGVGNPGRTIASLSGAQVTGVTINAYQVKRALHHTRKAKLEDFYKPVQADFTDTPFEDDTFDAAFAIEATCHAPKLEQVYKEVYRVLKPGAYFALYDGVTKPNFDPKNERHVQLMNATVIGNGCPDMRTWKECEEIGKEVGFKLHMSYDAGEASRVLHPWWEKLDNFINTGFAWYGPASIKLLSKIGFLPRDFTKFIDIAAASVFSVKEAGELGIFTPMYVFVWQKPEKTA
Experimental: as §1, §2

TMT-3 [2] = biological target: T4, TMT-3 (Botryococcus braunii, UniProt H2E7T7); assay: as above; type: biochemical, Botryococcus braunii race B; conditions: TMT-3 microsomes; 2 mM acceptor substrate, 50 μM 3H-SAM, 0.01% DHPC, 37° C., 5 min; mean ± S.E.M., n = 3
T4 construct: led to the identification of six full-length ORFs; expressed in transfected cells; host or cells: Saccharomyces cerevisiae TN7 (erg9 insertional mutant) co-expressing B. braunii squalene synthase (BSS) or SSL-1-3m
T4 sequence (H2E7T7 1-379): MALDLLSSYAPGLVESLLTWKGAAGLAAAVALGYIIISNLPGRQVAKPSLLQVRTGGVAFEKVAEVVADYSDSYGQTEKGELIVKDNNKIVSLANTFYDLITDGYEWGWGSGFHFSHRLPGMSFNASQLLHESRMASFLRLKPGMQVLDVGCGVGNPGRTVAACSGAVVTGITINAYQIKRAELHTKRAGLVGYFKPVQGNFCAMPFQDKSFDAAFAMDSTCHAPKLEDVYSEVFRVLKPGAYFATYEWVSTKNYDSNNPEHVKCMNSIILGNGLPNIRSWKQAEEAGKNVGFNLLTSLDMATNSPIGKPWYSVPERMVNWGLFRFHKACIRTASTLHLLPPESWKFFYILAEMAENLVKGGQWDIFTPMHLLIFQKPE
Experimental: as §1, §2

TMT-3 [3] = biological target: T4, TMT-3; assay: In vivo co-expression in TN7 yeast with triterpene synthase, GC-MS of organic extracts; type: cell-based, Botryococcus braunii race B; conditions: TN7 yeast co-expressing TMT-3 and BSS
Excerpt: (§3) Yeast lines previously developed for high level accumulation of squalene and botryococcene were used for evaluating the putative triterpene methyltransferase genes (17,23,24). These lines consist of the TN7 parental strain harboring an insertional mutation in the native yeast squalene synthase gene (ERG9) transformed with expression vectors containing either the full-length Botryococcus squalene synthase (BSS) gene (18) or a fusion of the Botryococcus SSL-1 and SSL-3 genes (functional equivalent of botryococcene synthase) including a sequence encoding for the carboxy-terminal membrane targeting domain of the Botryococcus squalene synthase protein (SSL-1-3m) (17). The various methyltransferase expression vectors were introduced into these two yeast lines using the lithium acetate transformation protocol, followed by selection for complementation of the uracil and leucine auxotrophic growth markers (24). […]
(§4) In brief, 1 ml aliquots of the culture were combined with 1 ml of acetone, mixed vigorously, and incubated at room temperature for 10 min. […] The mixture was then centrifuged briefly at 500 g to separate the phases, and an aliquot of the organic phase (1-3 μl) analyzed by GC-MS with a Varian CP-3800 GC coupled to a Varian Saturn 2200 MS/MS (Varian Medical Systems) using a Supelco SLB-5 ms fused silica capillary column (30 m×0.25 mm×0.25 μm film thickness, Supelco). […]

TMT-1 [4] = biological target: T5, TMT-1 (Botryococcus braunii, UniProt H2E7T5); assay: as above; type: cell-based, Botryococcus braunii race B; design: led to the identification of six full-length ORFs; made in house; host or cells: Saccharomyces cerevisiae TN7 (TN-7); conditions: TN7 yeast co-expressing TMT-1 and BSS
T5 sequence (H2E7T5 1-378): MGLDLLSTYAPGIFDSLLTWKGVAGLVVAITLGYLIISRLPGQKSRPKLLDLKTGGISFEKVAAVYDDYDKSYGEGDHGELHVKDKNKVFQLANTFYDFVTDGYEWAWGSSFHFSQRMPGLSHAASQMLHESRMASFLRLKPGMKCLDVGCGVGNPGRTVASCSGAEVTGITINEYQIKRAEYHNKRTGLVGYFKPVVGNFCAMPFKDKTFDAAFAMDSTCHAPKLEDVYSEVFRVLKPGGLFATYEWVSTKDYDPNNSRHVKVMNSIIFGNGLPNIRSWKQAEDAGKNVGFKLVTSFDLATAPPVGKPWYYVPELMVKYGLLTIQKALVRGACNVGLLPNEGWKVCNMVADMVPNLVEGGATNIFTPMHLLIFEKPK
Excerpt: as §3, §4

TMT-2 [5] = biological target: T6, TMT-2 (Botryococcus braunii, UniProt H2E7T6); assay: as above; type: cell-based, Botryococcus braunii race B; design: led to the identification of six full-length ORFs; made in house; host or cells: Saccharomyces cerevisiae TN7 (TN-7); conditions: TN7 yeast co-expressing TMT-2 and BSS
T6 sequence (H2E7T6 1-378): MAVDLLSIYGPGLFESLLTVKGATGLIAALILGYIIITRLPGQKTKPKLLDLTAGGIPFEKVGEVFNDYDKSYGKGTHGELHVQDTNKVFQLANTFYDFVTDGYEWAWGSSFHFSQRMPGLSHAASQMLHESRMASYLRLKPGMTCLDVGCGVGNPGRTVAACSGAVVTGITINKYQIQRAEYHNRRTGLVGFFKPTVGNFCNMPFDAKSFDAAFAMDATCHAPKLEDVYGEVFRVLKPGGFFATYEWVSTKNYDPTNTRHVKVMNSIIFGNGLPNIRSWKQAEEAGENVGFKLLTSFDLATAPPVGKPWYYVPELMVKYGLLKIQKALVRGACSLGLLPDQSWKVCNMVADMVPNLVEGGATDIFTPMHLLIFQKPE
Excerpt: as §3, §4

TMT-1 [6] = biological target: T5, TMT-1; assay: In vitro methyltransferase assay, yeast microsomes, 3H-SAM; type: biochemical, Botryococcus braunii race B; design: led to the identification of six full-length ORFs; made in house; host or cells: Saccharomyces cerevisiae TN7 (TN-7), microsomal preparation; conditions: TMT-1 microsomes; 2 mM acceptor substrate, 50 μM 3H-SAM, 0.1% DHPC, 37° C., 5 min; mean ± S.E.M., n = 3
Experimental: as §1, with “analysis. […]” for “analysis.”

TMT-2 [7] = biological target: T6, TMT-2; assay: as above; type: biochemical, Botryococcus braunii race B; design: led to the identification of six full-length ORFs; made in house; host or cells: Saccharomyces cerevisiae TN7 (TN-7), microsomal preparation; conditions: TMT-2 microsomes; 2 mM acceptor substrate, 50 μM 3H-SAM, 0.1% DHPC, 37° C., 5 min; mean ± S.E.M., n = 3
Experimental: as §1, with “analysis. […]” for “analysis.”

## CC(C)=CCC[C@@H](C)[C@H]1CC[C@@]2(C)[C@@H]3CC[C@H]4C(C)(C)[C@@H](O)CC[C@@]45C[C@@]35CC[C@]12C [cycloartenol]
[1]
  Methylation of the sterol acceptor substrate: none of the six B. braunii SMT-like genes methylated

## CC(C)=CCC[C@@H](C)[C@H]1CC[C@@]2(C)C3=C(CC[C@]12C)[C@@]1(C)CC[C@H](O)C(C)(C)[C@@H]1CC3 [lanosterol]
[1]
  Methylation of the sterol acceptor substrate: none of the six B. braunii SMT-like genes methylated

## CC(C)=CCC/C(C)=C/CC/C(C)=C/CC/C=C(\C)CC/C=C(\C)CCC=C(C)C [squalene]
SMT-1
  Enzyme activity (methyl groups transferred to acceptor substrate): 0 pmol/h/µg
SMT-2
  Enzyme activity (methyl groups transferred to acceptor substrate): 0 pmol/h/µg
SMT-3
  Enzyme activity (methyl groups transferred to acceptor substrate): 0 pmol/h/µg
TMT-3 [2]
  Enzyme activity (methyl groups transferred to acceptor substrate): 35.4 ± 3.0 pmol/h/µg
TMT-3 [3]
  Share of total accumulating squalene converted to its methyl-derivatives: approximately 18%
TMT-1 [4]
  Share of total squalenes accumulated as methyl-derivatives: 63%
TMT-2 [5]
  Share of squalenes accumulated as methyl-derivatives: 40%
TMT-1 [6]
  Enzyme activity (methyl groups transferred to acceptor substrate): 513.7 ± 8.6 pmol/h/µg
TMT-2 [7]
  Enzyme activity (methyl groups transferred to acceptor substrate): 862.2 ± 59.9 pmol/h/µg

## CC(C)=CCC[C@@H](C)[C@H]1CC[C@H]2C3=C(CC[C@]12C)[C@@]1(C)CC[C@H](O)C[C@@H]1CC3 [zymosterol]
[1]
  Methylation of the sterol acceptor substrate: none of the six B. braunii SMT-like genes methylated
